From US20250345169A1, “DEVICES FOR PROVIDING TISSUE SUPPORT DURING BREAST RECONSTRUCTION, AND SYSTEMS AND METHODS THEREOF” (Melodi Health, Inc., priority 2023, published 2025)

Details: in vivo

systemic plasma level	Compound
below detection limits	CN(C)c1ccc(O)c2c1C[C@H]1C[C@H]3[C@H](N(C)C)C(O)=C(C(N)=O)C(=O)[C@@]3(O)C(O)=C1C2=O [Minocycline]
below detection limits	CO[C@H]1/C=C/O[C@@]2(C)Oc3c(C)c(O)c4c(O)c(c(/C=N/N5CCN(C)CC5)c(O)c4c3C2=O)NC(=O)/C(C)=C\C=C\[C@H](C)[C@H](O)[C@@H](C)[C@@H](O)[C@@H](C)[C@H](OC(C)=O)[C@@H]1C [Rifampin]
